Patent US20110059869A1, “Method for Increasing Enzymatic Reactivity” (RIKEN, priority 2008, published 2011)

Legend:
Type in all cases: biochemical
[1] = test system: E. coli DNA ligase, E. coli DNA polymerase I, E. coli RNaseH; assay: Double-stranded cDNA synthesis (Gubler-Hoffman method) on cDNA/RNA hybrid adsorbed to streptavidin beads; details: 0.6 M trehalose, 3 hours at 16° C.
Description: RNA was reverse transcribed with Unique oligo-dT having various restriction enzyme sites. The cDNA/RNA hybrids obtained were used while still adsorbed to the beads to conduct a double-strand synthesis reaction by the Gubler-Hoffman method as set forth below.
A 15 ug quantity of 5′ end biotin-labeled primer (Seq. ID No. 3) for reverse transcription was employed for 12 ug of total RNA (mouse embryo, 17.5, female). Reverse transcription reaction solution (1× GC buffer (Takara), 0.3 mM dNTP mix, saturated sorbitol/trehalose solution 30 uL, M-MLV 3,000 units) was added α[32P]dGTP was added, and the mixture was reacted for 30 minutes at 42° C., 10 minutes at 50° C., and 10 minutes at 56° C. Following reaction with proteinase K, the mixture was precipitated from CTAB/urea and redissolved in 7 M Gu-HCl. EtOH precipitation was then conducted. […]
Streptavidin beads on which was adsorbed cDNA/RNA hybrid were washed once with double-stranded synthesis-use reaction buffer ([…], Invitrogen). […] The mixture was washed three times with 1× binding buffer and measured with a liquid scintillation counter. The synthesis rate of double-stranded cDNA and the yield were calculated (Scheme 1).

[2] = test system: restriction enzyme PstI; assay: PstI cleavage reaction on a horizontal plate surface (DNA fragment III); details: horizontal plates, 0.6 M trehalose vs none
Description: Biotin-labeled DNA fragment III (Seq. ID No. 6, Scheme 4) was cleaved at the restriction enzyme PstI site on a horizontal streptavidin coated plate surface and the 104 by DNA fragment released was examined. To the DNA fragment III (500 ng) was admixed an equal volume of 2× binding buffer. The mixture was added to the wells of a plate that had been washed with 1× binding buffer and stirred and adsorbed while being gently vibrated for 15 minutes at room temperature. The supernatant was removed, washed three times with 1× binding buffer, and washed once with 1× PstI buffer. Two types of reaction solution (1× PstI buffer, 1× BSA restriction enzyme 40 units) were prepared: a trehalose (+) system to which D(+)-trehalose was added to a final concentration of 0.6 M, and a trehalose (−) system to which no trehalose was added. Each of the reaction solutions was added to wells that had been washed, and then reacted for three hours at 37° C. Cleavage was conducted with restriction enzyme. The supernatant containing the DNA fragments that had been released was recovered, reacted with proteinase K, treated with phenol chloroform, and precipitated from ethanol. The precipitate of DNA fragments obtained was dissolved in 1× TE (pH 7.5) and analyzed with Bioanalyzer DNA 1000 assay (Agilent Technologies).

[3] = test system: restriction enzyme PstI; assay: PstI cleavage reactions with different distances from bead or plate surface to the DNA cleavage site; details: 0.6 M trehalose vs none; cleavage site 20 bp, 50 bp, 100 bp from surface; beads and plates
Description: Three biotin-labeled DNA fragments I, II, and III (Seq. ID Nos. 4 to 6, Scheme 4) were cleaved at their respective restriction enzyme PstI site and the size of the DNA fragments released was examined. Paramagnetic streptavidin beads were washed with the accessory 1× binding buffer and recovered with a magnetic stand to remove the supernatant. They were then suspended in identical buffer. To each of the three types of biotin-labeled DNA fragments (500 ng) was admixed an equal volume of 2× binding buffer, the bead solution was added, and the mixture was stirred gently for 15 minutes with top to bottom inversion and rotation to induce adsorption. The beads to which the sample had adsorbed were recovered with the magnetic stand, washed three times with 1× binding buffer, and washed one more time with 1× PstI buffer. […] The precipitate of DNA fragments obtained was dissolved in 1× TE (pH 7.5) and analyzed with Bioanalyzer DNA 1000 assay (Agilent Technologies).
Three biotin-labeled DNA fragments I, II, and III (Seq. ID Nos. 4 to 6, Scheme 4) were cleaved at their respective restriction enzyme PstI site and the size of the DNA fragments released was examined. […] The precipitate of DNA fragments obtained was dissolved in 1× TE (pH 7.5) and analyzed with Bioanalyzer DNA 1000 assay (Agilent Technologies). […]

OC[C@H]1O[C@H](O[C@H]2O[C@H](CO)[C@@H](O)[C@H](O)[C@H]2O)[C@H](O)[C@@H](O)[C@@H]1O [trehalose, D(+)-trehalose]
double-stranded cDNA synthesis rate, increase over trehalose (−) conditions [1]: 1.25 fold
yield of released DNA fragment [2]: higher yield
yield of DNA released by cleavage [3]: increase
